# Reference: ChEMBL document CHEMBL1201862, “PubChem BioAssay data set” (2004)
# Activity calls are given as the source filed them.
# What was measured:
# [1] = AlphaScreen signal interference compounds, dose response, artefact control for ARNT-TACC3 interaction inhibitor project, biochemical, luminescence, cherry-pick (AID 651705); format: functional;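 further: AlphaScreen bead proximity signal that flags compounds interfering with the detection technology; potency reflects signal decrease which marks the compound as an assay artifact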
# [2] = molecular target: Dual specificity protein phosphatase 3 (Homo sapiens, UniProt P51452); assay: VHR phosphatase inhibition, dose response, selectivity assay for STEP inhibitor project, biochemical (AID 602374); format: functional; conditions: read-out: IC50_Mean
# Chain of Dual specificity protein phosphatase 3 (P51452 whole entry): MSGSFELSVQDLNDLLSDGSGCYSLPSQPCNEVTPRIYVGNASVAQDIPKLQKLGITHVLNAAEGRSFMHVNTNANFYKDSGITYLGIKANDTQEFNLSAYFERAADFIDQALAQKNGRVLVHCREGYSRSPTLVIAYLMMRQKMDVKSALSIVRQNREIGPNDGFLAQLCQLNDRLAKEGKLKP
# [3] = molecular target: T1, Tyrosine-protein phosphatase non-receptor type 5 (Homo sapiens, UniProt P54829); assay: STEP phosphatase inhibitors, confirmation, biochemical, fluorescence intensity, uHTS hits (AID 602372); format: functional; conditions: read-out: IC50_Mean
# T1 sequence (P54829 whole entry): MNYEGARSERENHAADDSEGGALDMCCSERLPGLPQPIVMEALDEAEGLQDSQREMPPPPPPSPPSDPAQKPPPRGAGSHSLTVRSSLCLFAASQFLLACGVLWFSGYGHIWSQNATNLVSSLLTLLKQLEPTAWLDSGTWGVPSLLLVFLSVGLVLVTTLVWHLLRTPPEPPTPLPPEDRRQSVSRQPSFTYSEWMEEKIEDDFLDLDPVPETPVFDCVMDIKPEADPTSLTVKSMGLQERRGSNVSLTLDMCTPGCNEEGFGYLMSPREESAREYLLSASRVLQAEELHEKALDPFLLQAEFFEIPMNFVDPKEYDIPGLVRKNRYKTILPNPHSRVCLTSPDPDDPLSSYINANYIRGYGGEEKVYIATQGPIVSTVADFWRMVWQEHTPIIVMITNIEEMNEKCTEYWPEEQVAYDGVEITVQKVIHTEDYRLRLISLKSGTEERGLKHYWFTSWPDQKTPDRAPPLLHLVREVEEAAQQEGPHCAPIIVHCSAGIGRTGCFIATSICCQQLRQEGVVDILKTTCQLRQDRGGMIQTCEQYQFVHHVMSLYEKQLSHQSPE
# [4] = molecular target: T2, Tyrosine-protein phosphatase non-receptor type 11 (Homo sapiens, UniProt Q06124); assay: SHP2 phosphatase inhibition, dose response, selectivity assay for STEP inhibitor project, biochemical (AID 602367); format: functional; conditions: read-out: IC50_Mean
# T2 sequence (Q06124 whole entry): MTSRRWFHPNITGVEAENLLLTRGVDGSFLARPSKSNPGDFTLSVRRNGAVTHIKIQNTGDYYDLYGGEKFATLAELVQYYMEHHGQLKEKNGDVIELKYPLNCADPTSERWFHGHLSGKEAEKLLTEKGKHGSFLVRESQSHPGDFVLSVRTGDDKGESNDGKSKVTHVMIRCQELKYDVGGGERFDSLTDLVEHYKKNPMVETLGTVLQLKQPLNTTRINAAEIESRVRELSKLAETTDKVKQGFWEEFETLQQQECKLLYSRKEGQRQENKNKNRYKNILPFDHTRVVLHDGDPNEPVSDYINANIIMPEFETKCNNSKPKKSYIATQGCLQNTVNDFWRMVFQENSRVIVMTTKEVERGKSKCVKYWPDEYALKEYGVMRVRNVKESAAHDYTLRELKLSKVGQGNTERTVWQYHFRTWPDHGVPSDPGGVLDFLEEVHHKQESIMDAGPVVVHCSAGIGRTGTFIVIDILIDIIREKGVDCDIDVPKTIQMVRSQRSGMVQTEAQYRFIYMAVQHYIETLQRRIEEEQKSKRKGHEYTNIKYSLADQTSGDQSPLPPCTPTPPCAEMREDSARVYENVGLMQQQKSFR
# Streptococcus = assay: Group A Streptococcus viability loss, dose response, counter-screen for streptokinase expression inhibitor project, luminescence, BacTiterGlo (AID 1915); format: functional, organism-based;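 further: potency for reduction of bacterial viability or growth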
# [5] = molecular target: T3, Low molecular weight phosphotyrosine protein phosphatase (Homo sapiens, UniProt P24666); format: functional; conditions: read-out: IC50_Mean;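 further: Dose-response confirmation assay measuring inhibition of LMPTP enzyme activity by fluorescence intensity read-out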
# T3 sequence (P24666 whole entry): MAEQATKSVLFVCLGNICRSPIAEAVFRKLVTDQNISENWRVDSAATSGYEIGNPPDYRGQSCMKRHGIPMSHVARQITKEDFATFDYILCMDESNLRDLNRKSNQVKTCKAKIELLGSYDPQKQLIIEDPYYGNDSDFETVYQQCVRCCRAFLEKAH
# [6] = test system: Streptococcus sp. 'group A'; assay: growth inhibition of control SK(-) GAS strain, dose response, counter-screen for streptokinase expression inhibitor project, luminescence, kanamycin, BacTiterGlo, confirmation (AID 1900); format: functional, organism-based
# [7] = (§1) Counterscreen for antagonists of the orexin 1 receptor (OX1R; HCRTR1): Fluorescence-based cell-based high throughput dose response assay to identify antagonists of the parental CHO cell line. [Related pubchem assays (depositor defined):AID434989, AID435008, AID463079, AID485270, AID492963, AID492964, AID492965, AID493232, AID504699, AID504701]; format: functional
# [8] = molecular target: T4, Orexin/Hypocretin receptor type 1 (Homo sapiens, UniProt O43613); assay: (§2) Fluorescence-based cell-based high throughput dose response assay for antagonists of the orexin 1 receptor (OX1R; HCRTR1). [Related pubchem assays (depositor defined):AID434989, AID435008, AID463079, AID485270, AID492963, AID492964, AID492965, AID493232, AID504717, AID504718]; format: functional
# T4 sequence (O43613 whole entry): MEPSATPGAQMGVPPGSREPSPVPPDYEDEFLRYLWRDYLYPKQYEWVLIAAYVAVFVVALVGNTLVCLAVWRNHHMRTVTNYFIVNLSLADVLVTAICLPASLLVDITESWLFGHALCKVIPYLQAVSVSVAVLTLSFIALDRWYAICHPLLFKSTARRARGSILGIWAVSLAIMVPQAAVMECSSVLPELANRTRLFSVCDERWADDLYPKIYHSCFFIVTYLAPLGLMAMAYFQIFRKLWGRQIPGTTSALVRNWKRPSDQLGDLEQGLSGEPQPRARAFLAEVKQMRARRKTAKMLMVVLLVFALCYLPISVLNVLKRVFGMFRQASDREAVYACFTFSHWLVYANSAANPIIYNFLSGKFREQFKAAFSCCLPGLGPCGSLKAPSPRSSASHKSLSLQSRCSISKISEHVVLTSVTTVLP
# Orexin receptor type 2 [9] = molecular target: T5, Orexin receptor type 2 (Homo sapiens, UniProt O43614); assay: Counterscreen assay for antagonists of the orexin 1 receptor (OX1R; HCRTR1): Fluorescence-based cell-based dose response assay for antagonists of the orexin 2 receptor (OX2R; HCRTR2), run by assay provider.; format: functional
# T5 sequence (O43614 whole entry): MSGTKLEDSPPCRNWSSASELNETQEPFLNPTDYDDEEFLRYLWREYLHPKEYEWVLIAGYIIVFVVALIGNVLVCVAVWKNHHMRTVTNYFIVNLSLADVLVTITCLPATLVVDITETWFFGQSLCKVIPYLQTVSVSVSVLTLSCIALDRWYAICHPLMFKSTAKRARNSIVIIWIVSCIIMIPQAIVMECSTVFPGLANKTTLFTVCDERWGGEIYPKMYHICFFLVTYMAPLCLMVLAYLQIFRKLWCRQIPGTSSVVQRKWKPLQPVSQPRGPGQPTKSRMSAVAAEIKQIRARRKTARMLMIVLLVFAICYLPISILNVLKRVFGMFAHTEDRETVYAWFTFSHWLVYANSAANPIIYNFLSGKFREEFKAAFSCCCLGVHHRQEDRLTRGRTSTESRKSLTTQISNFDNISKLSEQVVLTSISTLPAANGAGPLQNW
# Orexin receptor type 2 [10] = molecular target: T5, Orexin receptor type 2; assay: Counterscreen assay for antagonists of the orexin 1 receptor (OX1R; HCRTR1): Homogeneous Time Resolved Fluorescence (HTRF)-based cell-based dose response assay for antagonists of the orexin 2 receptor (OX2R; HCRTR2), run by assay provider.; format: functional
# [11] = molecular target: T4, Orexin/Hypocretin receptor type 1; assay: as §2, with “Homogeneous Time Resolved Fluorescence (HTRF)-based” for “Fluorescence-based”; format: functional
# CHO-K1 = assay: as §1, with “Homogeneous time resolved fluorescence (HTRF)-based” for “Fluorescence-based”, “cell-based” for “cell-based high throughput”, “CHO-K1” for “CHO”; format: functional; conditions: Cricetulus griseus;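 further: potency for inhibition of ATP-stimulated IP1 production as antagonists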
# [12] = A Cell Based Secondary Assay To Explore Cytotoxicity of Compounds that Sensitize Mycobacterium Tuberculosis to Beta-Lactam Antibiotics.; format: functional
# [13] = molecular target: T6, Aryl hydrocarbon receptor (Homo sapiens, UniProt P35869); conditions: Potency;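 further: confirmatory quantitative high-throughput screen measuring activation of the AhR signaling pathway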
# T6 sequence (P35869 whole entry): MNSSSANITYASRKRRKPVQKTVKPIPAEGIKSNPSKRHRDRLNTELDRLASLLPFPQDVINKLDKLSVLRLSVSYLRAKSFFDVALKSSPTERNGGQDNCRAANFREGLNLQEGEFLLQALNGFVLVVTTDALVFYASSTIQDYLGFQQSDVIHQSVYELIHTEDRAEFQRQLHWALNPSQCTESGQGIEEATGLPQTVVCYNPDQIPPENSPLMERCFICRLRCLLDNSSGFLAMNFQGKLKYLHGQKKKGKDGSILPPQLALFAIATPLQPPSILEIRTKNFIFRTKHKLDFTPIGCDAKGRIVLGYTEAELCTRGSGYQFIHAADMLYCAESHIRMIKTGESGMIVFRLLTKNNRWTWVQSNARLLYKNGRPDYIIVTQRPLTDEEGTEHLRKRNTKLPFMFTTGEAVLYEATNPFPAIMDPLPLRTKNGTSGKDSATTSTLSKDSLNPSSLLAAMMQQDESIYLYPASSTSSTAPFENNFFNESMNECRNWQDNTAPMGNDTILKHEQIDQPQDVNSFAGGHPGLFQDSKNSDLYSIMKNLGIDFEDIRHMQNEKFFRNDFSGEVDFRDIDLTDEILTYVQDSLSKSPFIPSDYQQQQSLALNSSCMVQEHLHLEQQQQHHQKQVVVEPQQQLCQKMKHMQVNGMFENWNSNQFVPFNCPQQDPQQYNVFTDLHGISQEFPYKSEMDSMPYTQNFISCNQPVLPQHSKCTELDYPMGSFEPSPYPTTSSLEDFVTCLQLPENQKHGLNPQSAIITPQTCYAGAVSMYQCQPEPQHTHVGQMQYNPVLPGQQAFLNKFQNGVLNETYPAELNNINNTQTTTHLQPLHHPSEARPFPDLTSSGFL
# Interleukin-8 = molecular target: T7, Interleukin-8 (Homo sapiens, UniProt P10145); assay: Dose Response confirmation of uHTS small molecule hits for cystic fibrosis induced NFkb Inhibitors in a PAF-induced IL8 counterscreen.; format: functional; conditions: read-out: IC50_Mean
# T7 sequence (P10145 whole entry): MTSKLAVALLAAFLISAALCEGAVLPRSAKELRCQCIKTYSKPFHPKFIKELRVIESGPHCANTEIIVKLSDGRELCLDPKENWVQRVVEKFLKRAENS
# [14] = molecular target: T8, Adenosylmethionine-8-amino-7-oxononanoate aminotransferase (Mycobacterium tuberculosis, UniProt P9WQ81); assay: Mycobacterium tuberculosis BioA enzyme inhibitor Measured in Biochemical System Using Plate Reader - 2163-02_Inhibitor_Dose_CherryPick_Activity.; format: functional, Mycobacterium tuberculosis UT205
# T8 sequence (P9WQ81 whole entry): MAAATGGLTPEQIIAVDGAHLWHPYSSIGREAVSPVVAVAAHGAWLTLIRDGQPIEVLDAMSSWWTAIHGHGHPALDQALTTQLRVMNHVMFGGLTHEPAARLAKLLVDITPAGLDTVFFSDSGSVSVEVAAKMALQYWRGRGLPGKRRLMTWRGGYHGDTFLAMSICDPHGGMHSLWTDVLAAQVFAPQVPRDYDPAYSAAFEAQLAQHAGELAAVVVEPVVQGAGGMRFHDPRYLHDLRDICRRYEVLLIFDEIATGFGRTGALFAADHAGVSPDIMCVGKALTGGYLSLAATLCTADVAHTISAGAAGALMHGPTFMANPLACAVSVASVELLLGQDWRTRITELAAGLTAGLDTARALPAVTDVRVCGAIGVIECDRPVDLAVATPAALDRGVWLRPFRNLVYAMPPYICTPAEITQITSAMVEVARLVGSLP
smiles,measurement,setting,value
COc1ccc(C(=O)Oc2cccc3cccnc23)cc1[N+](=O)[O-],AC50,[1],135 µM (active)
O=C(Nc1nnc(C2=COCCO2)o1)c1ccc(Cl)cc1,AC50,[1],85.8 µM (active)
CN1CCC2(CC1)N=C(c1ccc(F)cc1)C(=S)N2,IC50,[2],2.69 µM (active)
same,IC50,[3],41.6 µM (inactive)
same,IC50,[4],8.94 µM (active)
C=CC1=C(C(=O)O)N2C(=O)C(NC(=O)Cc3ccccc3)C2SC1 (stereo not given),EC50,Streptococcus,0.269 µM (active)
same,IC50,[2],7.17 µM (active)
same,IC50,[5],42.8 µM (inactive)
same,IC50,[3],52.9 µM (inactive)
same,EC50,[6],0.169 µM (active)
same,IC50,[4],4.42 µM (active)
C=CCn1c(SCc2ccc(C(=O)Nc3nccs3)cc2)nnc1-c1ccc(C)c(Cl)c1,IC50,[7],18.3 µM (inactive)
same,IC50,[8],4.95 µM (active)
same,IC50,Orexin receptor type 2 [9],18 µM (inactive)
same,IC50,Orexin receptor type 2 [10],> 50 µM (inactive)
same,IC50,[11],0.919 µM (active)
same,IC50,CHO-K1,> 66.2 µM (inactive)
same,CC50,[12],33 µM (active)
CCOc1ccccc1C(=O)NCCNC(=O)c1ccccc1OCC,IC50,[7],> 49.8 µM (inactive)
same,IC50,[8],3.27 µM (active)
same,IC50,Orexin receptor type 2 [9],> 88.8 µM (inactive)
same,IC50,Orexin receptor type 2 [10],2.78 µM (active)
same,IC50,[11],4.15 µM (active)
same,IC50,CHO-K1,> 66.2 µM (inactive)
COc1ccc(OC)c(S(=O)(=O)NCC(c2ccco2)N2CCc3ccccc32)c1 (stereo not given),IC50,[7],> 49.8 µM (inactive)
same,IC50,[8],2 µM (active)
same,IC50,Orexin receptor type 2 [9],10.5 µM (inactive)
same,IC50,Orexin receptor type 2 [10],> 50 µM (inactive)
same,IC50,[11],2.3 µM (active)
same,IC50,CHO-K1,> 66.2 µM (inactive)
CCNc1nc(NCC)nc(SC)n1,AC50,[13],0.447 µM (inconclusive)
C#CCN(C[C@@H]1[C@@H](OC(=O)NC2CC2)[C@@H](OC(=O)NC2CC2)Cn2c(=O)ccc(=O)n21)S(=O)(=O)c1ccc(C)cc1,IC50,Interleukin-8,6.06 µM (active)
CN1c2ccc(-c3cccc(F)c3)cc2[C@H]2[C@H](CCN2C(=O)c2ccc3c(c2)OCO3)[C@H]1CO,AC50,[14],0.075 µM (active)
CO[C@H]1CN(C)C(=O)c2ccc(NC(C)=O)cc2OC[C@@H](C)N(C(=O)C2CCCCC2)C[C@H]1C,AC50,[14],6.6 µM (active)
Cc1c(NC(=O)c2cc3ccccc3o2)cccc1-n1cnnn1,AC50,[14],6.18 µM (active)
